This note sets out measurements from paper PMC11173647, “Anti-Inflammatory Activity of Pyrazolo[1,5-a]quinazolines” (Molecules, 2024).

Where two headings read alike, the source gives them in different places. A value given as a limit tells only on which side of the number the result lay.

The subject of data set [1] is LPS-induced NF-κB/AP-1 transcriptional activity in THP-1Blue cells. Nature of the data set: LPS-induced NF-κB/AP-1 reporter (secreted alkaline phosphatase) activity in THP-1Blue cells. It is filed as cell-based, human. The following applies: for IC50: THP-1Blue cells, 30 min pretreatment, 250 ng/mL LPS for 24 h, alkaline phosphatase in supernatant, read-out: AP Production IC50; for inhibitory activity in THP-1Blue cells (in words): LPS-induced NF-κB/AP-1 reporter activity. On the procedure: THP-1 cells are a human monocyte cell line that was developed from a monocyte isolated from the peripheral blood of an acute monocytic leukemia patient. This cell line is used as a monocyte/macrophage model in immunology research. The THP-1Blue cells obtained from InvivoGen (San Diego, CA, USA) are THP-1 cells that were stably transfected with a secreted embryonic alkaline phosphatase gene that is under control of a NF-κB/AP-1-inducible promoter. For this study, THP-1Blue cells were cultured at 37 °C in a humidified atmosphere containing 5% CO2 in RPMI 1640 medium (Mediatech Inc., Herndon, VA, USA) supplemented with 10% (v/v) fetal bovine serum (FBS), 100 μg/mL streptomycin, 100 U/mL penicillin, 100 μg/mL phleomycin (Zeocin), and 10 μg/mL blasticidin S (all from Sigma-Aldrich, St. Louis, MO, USA).
To measure the activation of AP-1/NF-κB, the THP-1Blue cells (2 × 10^5 cells/well) were pretreated with the test compounds or dimethyl sulfoxide (DMSO; 1% final concentration) for 30 min, followed by the addition of 250 ng/mL of lipopolysaccharide (LPS; from Escherichia coli strain 0111:B4) for 24 h, and alkaline phosphatase activity was measured in the cell supernatants using the QUANTI-Blue mix (InvivoGen) as the absorbance at 655 nm and compared with positive control samples (LPS). The concentration of the compound that caused 50% inhibition of the NF-κB reporter activity (IC50) was calculated.

A further data set deals with THP-1Blue cells. The data set is described as follows: Cytotoxicity, CellTiter-Glo Luminescent Cell Viability Assay. It is filed as cell-based, human. The following applies: 24 h, concentrations up to 50 µM. On the procedure: Cytotoxicity was analyzed with a CellTiter-Glo Luminescent Cell Viability Assay Kit from Promega (Madison, WI, USA) according to the manufacturer’s protocol. THP-1Blue cells were treated with varying concentrations of the test compounds (up to 50 µM) and cultivated for 24 h. After treatment, the cells were allowed to equilibrate to room temperature for 30 min, the substrate was added, and the samples were analyzed with a Fluoroscan Ascent FL (Thermo Fisher Scientific, Waltham, MA, USA).
In general terms: ATP-based viability assays read luminescence as a measure of living cells.

The next data set addresses T1, JNK3 (Homo sapiens, UniProt P53779).
T1 construct: purchased Eurofins Pharma Discovery (KINOMEscan)
The data set is described as follows: KINOMEscan ATP site-dependent binding assay. To be noted: duplicate. As for the experimental part:
(§1) Binding reactions were performed at room temperature for 1 h, and the fraction of kinase not bound to the test compound was determined by capture with an immobilized affinity ligand and quantified by quantitative polymerase chain reaction. The primary screening at fixed concentrations of the compound was performed in duplicate.

In another data set the target is T2, JNK1 (Homo sapiens, UniProt P45983).
T2 construct: purchased Eurofins Pharma Discovery (KINOMEscan)
T2 sequence (P45983 whole entry): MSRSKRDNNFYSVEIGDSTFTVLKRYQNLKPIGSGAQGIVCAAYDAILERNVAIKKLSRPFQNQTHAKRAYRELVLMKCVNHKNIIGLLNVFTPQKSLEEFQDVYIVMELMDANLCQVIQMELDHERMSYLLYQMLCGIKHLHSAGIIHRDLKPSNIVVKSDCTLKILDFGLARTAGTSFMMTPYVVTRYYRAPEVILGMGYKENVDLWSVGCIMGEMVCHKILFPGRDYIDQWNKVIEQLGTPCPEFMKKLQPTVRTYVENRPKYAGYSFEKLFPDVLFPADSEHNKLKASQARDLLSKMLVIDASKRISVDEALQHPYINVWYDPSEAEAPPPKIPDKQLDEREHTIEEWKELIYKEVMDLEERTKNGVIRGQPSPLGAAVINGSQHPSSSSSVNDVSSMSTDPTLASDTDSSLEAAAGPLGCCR
Nature of the data set: KINOMEscan ATP site-dependent binding assay. To be noted: duplicate. On the procedure:
as §1

The target in the next data set is T3, JNK2 (Homo sapiens, UniProt P45984).
T3 construct: purchased Eurofins Pharma Discovery (KINOMEscan)
T3 sequence (P45984 whole entry): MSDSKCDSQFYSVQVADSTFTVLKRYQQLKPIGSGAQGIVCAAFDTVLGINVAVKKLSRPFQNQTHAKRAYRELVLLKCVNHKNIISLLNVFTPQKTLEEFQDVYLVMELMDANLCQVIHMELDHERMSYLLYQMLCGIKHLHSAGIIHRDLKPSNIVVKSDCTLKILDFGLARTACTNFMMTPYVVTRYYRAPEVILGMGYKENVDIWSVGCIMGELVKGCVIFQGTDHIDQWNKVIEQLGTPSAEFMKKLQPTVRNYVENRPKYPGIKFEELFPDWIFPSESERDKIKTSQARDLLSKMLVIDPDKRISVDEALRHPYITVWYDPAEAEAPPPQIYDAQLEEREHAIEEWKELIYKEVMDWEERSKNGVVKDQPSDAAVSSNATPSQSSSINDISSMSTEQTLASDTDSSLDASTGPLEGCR
Nature of the data set: KINOMEscan ATP site-dependent binding assay. The following applies: duplicate. On the procedure:
as §1

T1 sequence (P53779 whole entry): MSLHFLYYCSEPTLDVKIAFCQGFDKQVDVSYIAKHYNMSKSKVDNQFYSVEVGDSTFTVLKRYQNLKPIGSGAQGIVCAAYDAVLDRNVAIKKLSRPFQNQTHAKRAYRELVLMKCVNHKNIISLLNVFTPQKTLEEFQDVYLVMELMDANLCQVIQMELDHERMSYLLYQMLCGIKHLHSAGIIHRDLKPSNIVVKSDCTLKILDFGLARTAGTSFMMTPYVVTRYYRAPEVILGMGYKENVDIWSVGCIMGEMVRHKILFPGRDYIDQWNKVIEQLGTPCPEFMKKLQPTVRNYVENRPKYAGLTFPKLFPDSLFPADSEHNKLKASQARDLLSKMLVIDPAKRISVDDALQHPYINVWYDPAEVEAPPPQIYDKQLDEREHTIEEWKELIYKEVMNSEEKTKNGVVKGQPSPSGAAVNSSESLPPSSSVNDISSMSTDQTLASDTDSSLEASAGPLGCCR

With `NC(=O)c1cnn2c1nc(OCc1ccc(Br)cc1)c1ccccc12` [13f], the melting point (as a rule, the temperature, or range, at which the solid turns liquid) was 243 to 244 °C.

As to `Cn1c(=O)c2ccc(N)cc2n2ncc(C(N)=O)c12` [compound 49], the melting point is > 300 °C. Same read-out and setting: then `N#Cc1cnn2c1[nH]c(=O)c1ccc([N+](=O)[O-])cc12` [2c], with 280 to 283 °C; and `C[S+]([O-])c1ccc(Cn2c(=O)c3ccccc3n3ncc(I)c23)cc1` (stereo not shown) [compound 9], with 198 to 201 °C; and `NC(=O)c1cnn2c1nc(OCc1ccccc1Cl)c1ccccc12` [13d], with 227 to 229 °C. With `N#Cc1cnn2c1nc(Nc1ccc(N)cc1)c1ccc([N+](=O)[O-])cc12` [42c], the melting point is > 295 °C.

For `CSc1ccc(Cn2c(=O)c3ccccc3n3ncc(C(N)=O)c23)cc1` [14c], the melting point fell in the range of 276 to 279 °C. Still for that read-out and setting: for `c1ccc(COc2nc3c(-c4ccsc4)cnn3c3ccccc23)cc1` [21a] the value was 179 to 181 °C. Take `COc1nc2c(C(N)=O)cnn2c2cc(N)ccc12` [46a]: the melting point is > 300 °C. `Cn1c(=O)c2ccc(N)cc2n2ncc(C#N)c12` [compound 48] returned a melting point of 286 to 288 °C. For `CNc1nc2c(C(N)=O)cnn2c2cc([N+](=O)[O-])ccc12` [compound 43, 5-(Methylamino)-8-nitropyrazolo[1,5-a]quinazoline-3-carboxamide], the melting point is > 300 °C. Besides, in data set [1] (Homo sapiens), the IC50 (commonly the concentration at which inhibition is half-maximal) turned out to be 11.8 ± 2.2 µM. Further, in the data set with THP-1Blue cells, the Cytotoxicity entry is reported as “N.T. (no cytotoxicity was found in THP-1Blue cells at concentrations up to 50 µM)”. In the case of `CN(C)/C=N/C(=O)c1cnn2c1[nH]c(=O)c1ccc(Cl)cc12` [compound 26, (E)-8-Chloro-N-[(dimethylamino)methylene]-5-oxo-4,5-dihydropyrazolo[1,5-a]quinazoline-3-carboxamide], the melting point was 288 to 290 °C. The IC50 in data set [1] (Homo sapiens) is 49.3 ± 4.6 µM. Besides, the Cytotoxicity entry in the data set on THP-1Blue cells is on record as “N.T. (no cytotoxicity was found in THP-1Blue cells at concentrations up to 50 µM)”. Consider `CNc1nc2c(C#N)cnn2c2cc([N+](=O)[O-])ccc12` [42a, 5-(Methylamino)-8-nitropyrazolo[1,5-a]quinazoline-3-carbonitrile], for which the melting point was > 300 °C. The IC50 in data set [1] (Homo sapiens) stood at 30.1 ± 3.3 µM. For the same compound, in data set [1], the “inhibitory activity in THP-1Blue cells (in words)” value is reported as “moderate activity”. In addition, the Cytotoxicity entry in the data set on THP-1Blue cells is “N.T. (no cytotoxicity was found in THP-1Blue cells at concentrations up to 50 µM)”. Take `CNc1nc2c(C#N)cnn2c2cc(N)ccc12` [46b]: the melting point was > 300 °C. `NC(=O)c1cnn2c1nc(OCc1ccc(S(N)(=O)=O)cc1)c1ccc(Cl)cc12` [23c, 8-Chloro-5-(4-sulfamoylbenzyloxy)pyrazolo[1,5-a]quinazoline-3-carboxamide]: the IC50 in data set [1] (Homo sapiens) is 12.2 ± 2.1 µM. Also, in the data set on THP-1Blue cells, the Cytotoxicity entry is reported as “N.T. (no cytotoxicity was found in THP-1Blue cells at concentrations up to 50 µM)”. As to `NC(=O)c1cnn2c1nc(OCc1cccc(Cl)c1)c1ccccc12` [13e], the melting point fell in the range of 242 to 245 °C. As for `NC(=O)c1cnn2c1nc(OCc1ccc(S(N)(=O)=O)cc1)c1ccc(Cl)cc12` (hydrate or solvate) [23c, 8-Chloro-5-(4-sulfamoylbenzyloxy)pyrazolo[1,5-a]quinazoline-3-carboxamide], the melting point was 177 to 180 °C. On to `COc1nc2c(C(N)=O)cnn2c2ccccc12` [13a, 5-Methoxypyrazolo[1,5-a]quinazoline-3-carboxamide], for which the melting point lay in the range of 246 to 247 °C. The IC50 in data set [1] (Homo sapiens) was 24.4 ± 3.1 µM. Further, in the data set on THP-1Blue cells, the Cytotoxicity result is reported as “N.T. (no cytotoxicity was found in THP-1Blue cells at concentrations up to 50 µM)”. On to `N#Cc1cnn2c1[nH]c(=O)c1cc([N+](=O)[O-])ccc12` [2d], for which the melting point is > 295 °C. In the case of `O=c1nc[nH]c2c1cnc1ccnn12` [53b], the melting point was > 300 °C. For `c1ccc(CNc2nc3c(-c4ccsc4)cnn3c3ccccc23)cc1` [compound 22], the melting point fell in the range of 176 to 177 °C. On to `C[S+]([O-])c1ccc(COc2nc3c(C(N)=O)cnn3c3ccccc23)cc1` (stereo not shown) [compound 16], for which the melting point lay within 225 to 226 °C. Further, on JNK3, the Kd (in general, the concentration at which binding is half-saturated) was 10.4 ± 1.5 µM. For the same compound, the Kd on JNK1 stood at 17 ± 2.1 µM. Further, the Kd on JNK2 came to 21 ± 2.4 µM. The concentration for half-maximal inhibition (IC50) in data set [1] (Homo sapiens) was found to be 7.9 ± 1.7 µM. Besides, the Cytotoxicity entry in the data set with THP-1Blue cells is reported as “N.T. (no cytotoxicity was found in THP-1Blue cells at concentrations up to 50 µM)”. For the compound `COc1ccc2c(c1)-n1ncc(C(=O)NCc3ccccc3)c1NC2` [58c], the values for the IC50 in data set [1] (Homo sapiens) and in data set [1] were 39.1 µM and 34.1 ± 4.1 µM, respectively. Also, the Cytotoxicity entry with THP-1Blue cells is listed as “N.T. (no cytotoxicity was found in THP-1Blue cells at concentrations up to 50 µM)”. Compound `CCOC(=O)c1cnn2c1[nH]c(=O)c1ccc([N+](=O)[O-])cc12` [4c] returned a melting point of 195 to 197 °C. `COc1nc2c(C(N)=O)cnn2c2ccc([N+](=O)[O-])cc12` [33b, 5-Methoxy-7-nitropyrazolo[1,5-a]quinazoline-3-carboxamide] came in with a melting point of 269 to 271 °C. Besides, in data set [1] (Homo sapiens), the IC50 came out at 18.2 ± 2.5 µM. In the data set on THP-1Blue cells, the Cytotoxicity entry was “N.T. (no cytotoxicity was found in THP-1Blue cells at concentrations up to 50 µM)”. `COc1nc2c(C(N)=O)cnn2c2cc(Cl)ccc12` [23a, 8-Chloro-5-methoxypyrazolo[1,5-a]quinazoline-3-carboxamide]: the melting point was in the range of 288 to 290 °C. Moreover, the concentration for half-maximal inhibition (IC50) in data set [1] (Homo sapiens) is 7.9 ± 1.6 µM. Besides, the Cytotoxicity result with THP-1Blue cells is “N.T. (no cytotoxicity was found in THP-1Blue cells at concentrations up to 50 µM)”. `CCOC(=O)c1cnn2c3ccccc3c(=O)n(Cc3ccc(S(N)(=O)=O)cc3)c12` [7c] yielded a melting point of 224 to 226 °C. Regarding `N#Cc1cnn2c1nc(Nc1ccc(N)cc1)c1cc([N+](=O)[O-])ccc12` [42d], the melting point is > 295 °C. Regarding `COc1nc2c(C#N)cnn2c2cc(N)ccc12` [compound 47, 8-amino-5-methoxy-PQ-3-carbonitrile], the melting point was > 300 °C. `Nc1ccccc1COc1nc2c(-c3ccsc3)cnn2c2ccccc12` [21b] gave a melting point of 125 to 126 °C. `CCOC(=O)c1cnn2c1ncc1c(=O)nc[nH]c12` [53a]: the melting point is > 300 °C.

As for `CNc1nc2c(C(N)=O)cnn2c2cc(N)ccc12` [46c], the melting point is > 300 °C. As for `CCOC(=O)c1cnn2c1[nH]c(=O)c1cc([N+](=O)[O-])ccc12` [4d], the melting point fell in the range of 217 to 220 °C. Still for that read-out and setting: then `CSc1ccc(Cn2c(=O)c3ccccc3n3nccc23)cc1` (hydrate or solvate) [7f], with 137 to 139 °C; and `CCOC(=O)c1cnn2c1nc(Nc1ccc(N)cc1)c1cc([N+](=O)[O-])ccc12` [compound 40], with 269 to 271 °C. For the compound `COc1nc2c(C(N)=O)cnn2c2cc([N+](=O)[O-])ccc12` [33a, 5-Methoxy-8-nitropyrazolo[1,5-a]quinazoline-3-carboxamide], the IC50 in data set [1] (Homo sapiens) is 14.1 ± 2.9 µM. Also, the Cytotoxicity entry with THP-1Blue cells was “N.T. (no cytotoxicity was found in THP-1Blue cells at concentrations up to 50 µM)”. With `CSc1ccc(Cn2c(=O)c3ccccc3n3ncc(C#N)c23)cc1` (hydrate or solvate) [7e], the melting point fell in the range of 189 to 192 °C. Compound `COc1cccc(COc2nc3c(C(N)=O)cnn3c3ccccc23)c1` [13h] registered a melting point of 210 to 212 °C. `Cc1ccccc1COc1nc2c(C(N)=O)cnn2c2ccccc12` [13g] returned a melting point of 226 to 227 °C. Consider “5-{[4-(Methanesulfonyl)phenyl]methoxy}-3-(thiophen-3-yl)pyrazolo[1,5-a]quinazoline [compound 20]”, for which, in data set [1], the “inhibitory activity in THP-1Blue cells (in words)” value is “moderate activity” and the half-inhibitory concentration (IC50) is 13.3 ± 2.6 µM. Also, the Cytotoxicity entry in the data set on THP-1Blue cells is on record as “N.T. (no cytotoxicity was found in THP-1Blue cells at concentrations up to 50 µM)”.
